{
  "source": "patent US11975071B2",
  "about": "“Tumor ablation using low-intensity ultrasound and sound excitable drug” (CORNELL UNIVERSITY, priority 2018, dated 2024)",
  "key": {"MDA-MB-468 cells [1]": {"test_system": "MDA-MB-468 cells", "assay": "Cell based ROS scavenging assay", "conditions": "then RB4 10 μM 1 h, US 1 MHz, 1 W/cm^2, 30 s, MTS one day later; for protective effect of ROS scavenger: scavenger pretreatment 30 min", "experimental": "Ceil based ROS scavenging assay: MDA-MB-468 cells (5×10^4) were treated with free radical scavengers, L-histidine (10 mM), D-mannitol (100 mM), N-acetyl cysteine (NAC, 0.5 mM), and superoxide dismutase (SOD, 100 μg/mL) for 30 minutes. The treated cells were then incubated with fresh media containing RB4 (10 μM) for an hour. After incubation, the wells were insonated (1 MHz, 1 W/cm^2, 30 sec, 100% DC) as described above. One day later, the cell's viability was assessed using the MTS solution."}, "[2]": {"test_system": "MDA-MB-468 breast cancer xenograft tumor", "assay": "In vivo SMRT effect using preloaded tumor cells", "experimental": "In vivo sono-membrane rupture therapy (SMRT) effect using preloaded tumor cells: MDA-MB-468 cells were suspended in PBS or RB4 (10 μM) in PBS for 1 day. The cells (5×10^6, 0.1 mL) were subcutaneously injected into both flanks. The left tumors, which were only treated with PBS, were the internal control; while the right tumors were treated with RB4 (10 μM) only, ultrasound only (1 MHz, 1 W/cm^2, 100% DC, 3 minutes), or an RB4-ultrasound combination (n=7). The transducer size was 0.75 cm^2. Tumor size was measured with slide calipers on days 7,10, 14,17,21,24, 28, and 36."}, "[3]": {"assay": "Chemical ROS assay (DCFH-DA) in solution under insonation", "conditions": "RB4 + DCFH solution insonated with different ultrasound powers, 30 s", "experimental": "Chemical ROS assay: To study the insonation induced ROS generation in solution, RB4 was tested using a modified 2′, 7′-dichlorofluorescin diacetate (DCFH-DA) assay. DCFH-DA (1 ml, 1 mM in MeOH) was hydrolyzed in NaOH aqueous solution (0.01N, 4 mL) at RT for 30 minutes to yield anon-fluorescent DCFH intermediate. The solution was neutralized with 20 mL of NaH2PO4 (25 mM) and shielded with aluminum foil. The final solution of DCFH was around 40 μM. RB4 (1.0 mg) was dissolved in DMSO (1 mL) and then diluted with water into a 20 μM solution. The RB4 solution (20 μM, 10 mL) was mixed with a DCFH solution (40 μM, 10 mL) as the test solution. The test solution (0.5 mL) was placed into each well of a 24-well plate. The DCFH solution without RB4 was included as a background control. The plates were treated with ultrasound (0.4-1.2 watt/cm^2) one well by one well for 30 seconds: and the insonated wells were then checked using a fluorescence plate reader, ex 485 nm/em 520 nm."}, "[4]": {"assay": "Absorption and emission spectra", "type": "physicochemical"}, "MDA-MB-468 cells [5]": {"test_system": "MDA-MB-468 cells", "assay": "Sonotoxicity with RB4: microscopy and MTS viability assay at 24 hours", "type": "cell-based", "experimental": "Sonotoxicity with RB4: MDA-MB-468 ceils (5×10^4) in 24 well plates were incubated in complete media with 10 μM RB4 for 1 hour prior to the ultrasound treatment. The plates were then placed on a pre-cut gel pad (2 cm×3 cm) with multipurpose ultrasound gel over a mounted handheld ultrasound transducer (5 cm^2) at 1 MHz, 1 W/cm^2 for 30 s, 100% DC. Cells were checked under an EVOS® FL Auto Cell Imaging system microscope. Cell viability at 24 hours was quantitated using an MTS assay. The plate was incubated at 37° C. for 4 hours. Absorbance was measured at 490 nm using a microplate reader."}, "HT1080, fibrosarcoma": {"test_system": "HT1080, fibrosarcoma", "assay": "Sono-sensitivity of RB4 in a second cell line", "type": "cell-based", "conditions": "RB4 + ultrasound"}, "MDA-MB-468 cells [6]": {"test_system": "MDA-MB-468 cells", "assay": "Mechanistic study of death process by flow cytometry (Annexin V / propidium iodide)", "type": "cell-based", "conditions": "RB4 10 μM + US 1 MHz, 1 W/cm^2, 30 s; one day after treatment", "experimental": "Mechanistic study of death process by flow cytometry: MDA-MB-468 cells (5×10^4) were incubated in complete media with or without 10 μM RB4 for 1 hour prior to ultrasound treatment. Then the plates were insonated at 1 MHz, 1 W/cm^2, 30 sec, 100% duty cycle. Following treatment, cells were re-incubated for 1 day, 4 groups of cells (Control, RB4 alone, ultrasound alone, and RB4 combined with ultrasound) were collected and washed twice with pre-cooled PBS. Cells were stained with FITC-conjugated Annexin-Y and propidium iodide for 15 minutes as per the manufacture's instructions, and then analyzed by flow cytometry. The percentage of dead cells and those undergoing apoptosis were analyzed using flow ‘cytometry’ analysis software."}, "[7]": {"test_system": "thigh muscle (normal muscle tissue)", "assay": "Same RB4-ultrasound treatment on thigh muscle, histochemical analysis", "type": "in vivo, BALB/c Nu/Nu female nude mice", "conditions": "RB4 + US 1 MHz, 1 W/cm^2, 3 min applied to thigh muscle; two days after treatment", "experimental": "(§1) In vivo SMRT effect with intra-tumoral injected RB4: MDA-MB-468 cells (10^7, 0.1 mL PBS) were subcutaneously inoculated into both flanks of BALB/c Nu/Nu female nude mice (5-6 weeks). The RB4 injections and ultrasound therapies were performed when the tumors had grown to approximately 4-5 mm in diameter, 20-22 days after inoculation. The tumors were treated with RB4 (10 μM, 50 μl) only, ultrasound only (1 MHz, 1 W cm2, 100% DC, 3 minutes), and a RB4-ultrasound combination (n=5), Under isoflurane anesthesia, RB4 was directly injected to the tumors of the mice. The ultrasound treatment was then performed immediately after the injection of RB4, with same transducer size. The same RB4-ultrasound treatment was performed on the thigh muscles of the mice. Histochemical analysis: Tumors and muscle tissue were harvested 2 days after therapy and the specimens were fixed in 10% formalin, cut in half, and embedded in paraffin. The paraffin sections (7 μm thick) were stained with hematoxylin-eosin (H&E). ImageJ 1.48 was used to measure the size of whole tumor and necrotic areas in the tumors."}, "[8]": {"test_system": "MDA-MB-468 xenograft tumor", "assay": "In vivo SMRT effect with intra-tumoral injected RB4, histochemical analysis", "design": "species or system BALB/c Nu/Nu female nude mice", "conditions": "two days after treatment", "experimental": "as §1"}, "HT-1080": {"test_system": "HT-1080", "assay": "Toxicity of RB4 to cells (IC50)", "type": "cell-based", "conditions": "Homo sapiens, RB4 alone"}, "MDA-MB-468": {"test_system": "MDA-MB-468", "assay": "Toxicity of RB4 to cells (IC50)", "type": "cell-based", "conditions": "Homo sapiens, RB4 alone"}},
  "note": "Entries after “also recorded” stand apart in the source; their conditions may differ.",
  "data": [
    {"compound": "OC[C@@H](O)[C@@H](O)[C@H](O)[C@H](O)CO", "note": "[D-mannitol]", "values": [
      {"measurement": "protective effect of ROS scavenger", "setting": "MDA-MB-468 cells [1]", "value": "none, with the exception of NAC, showed any protective effects"}
    ]},
    {"compound": "N[C@@H](Cc1c[nH]cn1)C(=O)O", "note": "[L-histidine]", "values": [
      {"measurement": "protective effect of ROS scavenger", "setting": "MDA-MB-468 cells [1]", "value": "none, with the exception of NAC, showed any protective effects"}
    ]},
    {"compound": "CC(=O)N[C@@H](CS)C(=O)O", "note": "[NAC, N-acetyl cysteine]", "values": [
      {"measurement": "fraction of cells rescued from RB4 and ultrasound combination treatment", "setting": "MDA-MB-468 cells [1]; scavenger pretreatment 30 min (NAC 0.5 mM)", "value": "~20", "unit": "%"},
      {"measurement": "protective effect of ROS scavenger", "setting": "MDA-MB-468 cells [1]", "value": "able to rescue a fraction of cells"}
    ]},
    {"compound": "O=C(NCCO)c1c(Cl)c(Cl)c(Cl)c(Cl)c1-c1c2cc(I)c(=O)c(I)c-2oc2c(I)c(O)c(I)cc12", "note": "[RB4, 2,3,4,5-tetrachloro-6-(6-hydroxy-2,4,5,7-tetraiodo-3-oxo-3H-xanthen-9-yl)-N-(2-hydroxyethyl)-benzamide]", "values": [
      {"measurement": "tumor growth inhibition (in words)", "setting": "[2]; RB4 10 μM + US 1 MHz, 1 W/cm^2, 3 min, N=7", "value": "significant growth arrest"},
      {"measurement": "average tumor size relative to control untreated tumor", "setting": "[2]; RB4 10 μM preloaded cells + US 1 MHz, 1 W/cm^2, 3 min, up to 36 days", "value": "about 20%"},
      {"measurement": "tumor growth inhibition (in words)", "setting": "[2]; RB4 alone 10 μM", "value": "about the same as the untreated group; also recorded: no appreciable inhibition effect"},
      {"measurement": "growth rate ratio of treated vs. untreated tumors", "setting": "[2]; RB4 alone (cells pre-incubated with 10 μM for 1 day), up to 36 days", "value": "≈ 1"},
      {"measurement": "ROS level of RB4 solution", "setting": "[3]", "value": "not significantly different from the background level"},
      {"measurement": "absorption and emission (in words)", "setting": "[4]", "value": "neither absorption nor emission above 400 nm"},
      {"measurement": "cells killed", "setting": "MDA-MB-468 cells [5]; RB4 10 μM 60 min + ultrasound 1 MHz, 1 W/cm^2, 30 s, viability one day later", "value": "over 90%"},
      {"measurement": "cell damage in microscopic images", "setting": "MDA-MB-468 cells [5]; RB4 10 μM + ultrasound 1 MHz, 1 W/cm^2, 30 s", "value": "significant damage"},
      {"measurement": "cell viability", "setting": "MDA-MB-468 cells [5]; RB4 alone 10 μM, 60 min, no ultrasound, MTS one day later", "value": "> 80", "unit": "% viable"},
      {"measurement": "cell damage in microscopic images", "setting": "MDA-MB-468 cells [5]; RB4 alone 10 μM, versus untreated", "value": "Little difference"},
      {"measurement": "cells killed", "setting": "HT1080, fibrosarcoma", "value": 95, "unit": "%"},
      {"measurement": "PI positive cells", "setting": "MDA-MB-468 cells [6]", "value": 3, "unit": "%"},
      {"measurement": "annexin positive cells", "setting": "MDA-MB-468 cells [6]", "value": 8, "unit": "%"},
      {"measurement": "annexin/PI double positive cells", "setting": "MDA-MB-468 cells [6]", "value": 36, "unit": "%"},
      {"measurement": "damage to normal muscle tissue", "setting": "[7]", "value": "maintained their normal structures without damage; also recorded: no damaged cells were found"},
      {"measurement": "necrotic area", "setting": "[8]; RB4 50 μL, 10 μM intratumoral + US 1 MHz, 1 W/cm^2, 3 min", "value": "~40", "unit": "%"},
      {"measurement": "necrosis on HE staining (in words)", "setting": "[8]; RB4 50 μl, 10 μM intratumoral + US 1 MHz, 1 W/cm^2, 3 min", "value": "A large necrotic area"},
      {"measurement": "tissue damage on HE staining (in words)", "setting": "[8]; RB4 alone 50 μl, 10 μM intratumoral", "value": "Little effect; also recorded: little tissue damage"},
      {"measurement": "IC50", "setting": "HT-1080", "value": 157, "unit": "µM"},
      {"measurement": "IC50", "setting": "MDA-MB-468", "value": 71, "unit": "µM"}
    ]},
    {"compound": "O=C1OC2(c3cc(I)c(O)c(I)c3Oc3c2cc(I)c(O)c3I)c2c(Cl)c(Cl)c(Cl)c(Cl)c21", "note": "[RB, Rose Bengal]", "values": [
      {"measurement": "absorption maximum", "setting": "[4]", "value": 549, "unit": "nm"},
      {"measurement": "emission maximum", "setting": "[4]", "value": 565, "unit": "nm"}
    ]},
    {"compound": "superoxide dismutase", "values": [
      {"measurement": "protective effect of ROS scavenger", "setting": "MDA-MB-468 cells [1]", "value": "none, with the exception of NAC, showed any protective effects"}
    ]}
  ]
}
